# From US20260200976A1, “PEPTIDE HAVING ACTIVITY OF IMPROVING STATE OF SKIN, AND USE THEREOF” (CAREGEN CO., LTD., priority 2022, published 2026)
# Tests used:
# HaCaT cells [1] = experiment: Reduction of reactive oxygen species increased by ultraviolet rays, DCF-DA flow cytometry, HaCaT; assay type: cell-based; settings: 50 μM or 1000 μM peptide, 15 J/cm2 ultraviolet rays, 24 hours, FL1 fluorescence, FIG. 9
# Experimental: (§1) In this example, the aim was to confirm the effect of the peptide according to an embodiment on the antioxidant effect in damaged skin, by evaluating the change in the level of reactive oxygen species in skin cells increased by ultraviolet irradiation.
# (§2) Specifically, NIH3T3 cells or HaCaT cells were seeded in a 6-well plate at a density of 5×10^5 cells/well and cultured for 24 hours. Next, the cells were washed once with serum-free DMEM media, and 50 μM or 1000 μM of a peptide consisting of an amino acid sequence of SEQ ID NO: 1 was dispensed into 1 mL of the serum-free media, and cultured in a CO2 incubator at 37° C. for […]. Next, the above culture was transferred to an e-tube, mixed with 1 ml of PBS, and dispensed into a well plate. Next, using a UV irradiator (VILBER LOURMAT, Cat No.: 3102-BSU, France), 6 J/cm2 ultraviolet rays were irradiated to NIH3T3 cells, and 15 J/cm2 ultraviolet rays were irradiated to HaCaT cells. Next, the PBS in the well plate was removed, 900 μL of the culture medium in which the peptides were dispensed was added, and the plate was cultured in a CO2 incubator at 37° C. for 24 hours. […] After washing the centrifuged cells with PBS, FL1 fluorescence values were measured through flow cytometry (FACS, BD, USA). […]
# NIH3T3 cells [2] = experiment: Inhibition of apoptosis induced by ultraviolet rays, MTT survival rate, NIH3T3; assay type: cell-based, mouse; settings: 50 μM or 100 μM peptide, 6 J/cm2 ultraviolet rays, FIG. 6
# Experimental: (§3) In this example, the aim was to confirm the effect of the peptide according to an example on the inhibition of apoptosis or cell recovery of skin cells induced by ultraviolet rays, by evaluating the change in survival rate of skin cells whose apoptosis was induced by ultraviolet irradiation.
# (§4) Specifically, NIH3T3 cells or HaCaT cells were seeded in a 96-well plate at a density of 1×10^4 cells/well and cultured for 24 hours. Next, the cells were washed once with serum-free DMEM media, and 50 μM or 100 μM of the peptide consisting of an amino acid sequence of SEQ ID NO: 1 was dispensed into 200 μL of the medium. The culture medium dispensed with the peptide was cultured in a CO2 incubator at 37° C. for 1 hour, transferred to an e-tube, mixed with 100 ul of PBS, and dispensed into a well plate. Next, using a UV irradiator (VILBER LOURMAT, Cat No.: 3102-BSU, France), 6 J/cm2 ultraviolet rays were irradiated to NIH3T3 cells, and […] ultraviolet rays were irradiated to HaCaT cells. Next, PBS in the well plate was removed, MTT (Sigma, Cat. No.: M2003, USA) solution was dispensed into each well at 0.5 mg/ml, and cultured in a CO2 incubator at 37° C. for […]. Next, the absorbance of the culture was measured at 540 nm using a microplate reader (Molecular Devices, USA). […]
# fibronectin = experiment: Expression of extracellular matrix component fibronectin, RT-PCR in NIH3T3 cells; assay type: cell-based, mouse; settings: 10 μM or 50 μM peptide, 24 hours, FIG. 2 and FIG. 3
# Experimental: (§5) In this example, the aim was to confirm the effect of the peptide according to an example on improving endogenous skin aging, including improvement of wrinkles and enhancement of elasticity, etc., by evaluating the expression levels of collagen type 1 (Col1a1), fibronectin, and elastin, which are known components of the dermis.
# (§6) Specifically, NIH3T3 cells were seeded in a 6-well plate at a density of 3×10^5 cells/well and cultured for 24 hours. Next, the cells were washed once with serum-free DMEM media, and 10 μM or 50 μM of a peptide consisting of an amino acid sequence of SEQ ID NO: 1 was dispensed into 1 mL of the serum-free media, and cultured in a CO2 incubator at 37° C. for 24 hours. Next, the culture was washed twice with PBS, and RNA was isolated from the culture using easy blue (iNtRON, Cat. No.: 17061, Korea). Next, using an RT kit (Enzynomics, Cat. NO.: RT200, Korea), the isolated RNA was reverse transcribed to synthesize the respective cDNA. Next, using the synthesized 1 μg cDNA, primers for Col1a1, fibronectin, or elastin, and a PCR kit (Enzynomics, Cat. No.: P581T, Korea), polymerase chain reaction (PCR) was performed. Meanwhile, in this example, an untreated group was used as a control group, and a group to which TGF-β1 was added was used as a positive control group, the nucleotide sequences of the primers used in this example are shown in Table 2 below.
# HaCaT cells [3] = experiment: Inhibition of apoptosis induced by ultraviolet rays, MTT survival rate, HaCaT; assay type: cell-based; settings: 50 μM or 100 μM peptide, 15 m J/cm2 ultraviolet rays, FIG. 7
# Experimental: as §3, §4
# collagen type 1 (Col1a1) = experiment: Expression of extracellular matrix component Col1a1, RT-PCR in NIH3T3 cells; assay type: cell-based, mouse; settings: 10 μM or 50 μM peptide, 24 hours, FIG. 2 and FIG. 3
# Experimental: as §5, §6
# elastin = experiment: Expression of extracellular matrix component elastin, RT-PCR in NIH3T3 cells; assay type: cell-based, mouse; settings: 10 μM or 50 μM peptide, 24 hours, FIG. 2 and FIG. 3
# Experimental: as §5, §6
# sirtuin-1 (SIRT-1) = experiment: Expression of skin barrier factor SIRT-1, RT-PCR in HaCaT cells; assay type: cell-based; settings: 50 μM or 1000 μM peptide, 24 hours, FIG. 4 and FIG. 5
# Experimental: (§7) In this example, the aim was to confirm the effect of the peptides according to an example on strengthening the skin barrier, by evaluating the expression levels of sirtuin-1 (SIRT-1) or aquaporin-3 (AQP3).
# (§8) Specifically, HaCaT cells were seeded in a 6-well plate at a density of 3×10^5 cells/well and cultured for 24 hours. Next, the cells were washed once with serum-free DMEM media, and 50 μM or 1000 μM of a peptide consisting of an amino acid sequence of SEQ ID NO: 1 was dispensed into 1 mL of the serum-free media, and cultured in a CO2 incubator at 37° C. for 24 hours. Next, the culture was washed twice with PBS, and RNA was isolated from the culture using easy blue (iNtRON, Cat. No.: 17061, Korea). Next, using an RT kit (Enzynomics, Cat. NO.: RT200, Korea), the isolated RNA was reverse transcribed to synthesize the respective cDNA. Next, using the synthesized 1 μg cDNA, primers for SIRT-1 or AQP3, and a PCR kit (Enzynomics, Cat. No.: P581T, Korea), polymerase chain reaction (PCR) was performed. Meanwhile, in this example, an untreated group was used as a control group, and a group to which EGF was added was used as a positive control group, the nucleotide sequences of the primers used in this example are shown in Table 3 below.
# NIH3T3 cells [4] = experiment: Proliferation of skin cells, MTT survival rate; assay type: cell-based, mouse; settings: 50 μM or 100 μM peptide, 72 hours, FIG. 1
# Experimental: In this example, the aim was to confirm the effect of a peptide according to an example on proliferation of skin cells, by evaluating changes in survival rate of NIH3T3 cells, which are mouse fibroblasts.
# Specifically, NIH3T3 cells were seeded in a […] at a density of 1×10^4 cells/well and cultured for 24 hours. Next, the cells were washed once with serum-free DMEM media, and 50 μM or 100 μM of a peptide consisting of an amino acid sequence of SEQ ID NO: 1 was dispensed into 200 μL of the serum-free media, and cultured in a CO2 incubator at 37° C. for 72 hours. Next, the culture was washed twice with PBS, and MTT solution was dispensed into each well at a concentration of 0.5 mg/ml. Next, it was shaded from light and cultured in a CO2 incubator at 37° C. for 4 hours, and the absorbance at 540 nm was measured using a microplate reader (Molecular Devices, USA).
# aquaporin-3 (AQP3) = experiment: Expression of skin barrier factor AQP3, RT-PCR in HaCaT cells; assay type: cell-based; settings: 50 μM or 1000 μM peptide, 24 hours, FIG. 4 and FIG. 5
# Experimental: as §7, §8
# NIH3T3 cells [5] = experiment: Reduction of reactive oxygen species increased by ultraviolet rays, DCF-DA flow cytometry, NIH3T3; assay type: cell-based, mouse; settings: 50 μM or 1000 μM peptide, 6 J/cm2 ultraviolet rays, 24 hours, FL1 fluorescence, FIG. 8
# Experimental: as §1, §2
substance,measurement,setting,value
EVVDI [SEQ ID NO: 1],level of reactive oxygen species in keratinocytes increased by ultraviolet irradiation,HaCaT cells [1],reduced
same,cell survival rate of fibroblasts reduced by ultraviolet irradiation,NIH3T3 cells [2],restored
same,expression of fibronectin,fibronectin,increased
same,cell survival rate of keratinocytes reduced by ultraviolet irradiation,HaCaT cells [3],restored
same,expression of Col1a1,collagen type 1 (Col1a1),increased
same,expression of elastin,elastin,increased
same,expression of SIRT-1,sirtuin-1 (SIRT-1),increased
same,proliferation of fibroblasts (cell survival rate),NIH3T3 cells [4],promoted
same,expression of AQP3,aquaporin-3 (AQP3),increased
same,level of reactive oxygen species in fibroblasts increased by ultraviolet irradiation,NIH3T3 cells [5],reduced
